Source: patent publication US11718604B2, “4-amino-6-(1,3-benzodioxole)picolinates and their use as herbicides” (Dow AgroSciences LLC, priority 2018, dated 2023)

Experiments:
Format in all cases: in vivo
[1] = tested on: ABUTH: velvetleaf (Abutilon theophrasti); assay: Post-emergent herbicidal test, velvetleaf; details: post-emergence, 336 h, 14 days after application, read-out: Visual Growth Reduction (%) 14 Days After Application ABUTH; for pest or weed control at 17.5 g/ha: 17.5 g ai/ha; for pest or weed control at 35 g/ha: 35 g ai/ha; for pest or weed control at 70 g/ha: 70 g ai/ha; for pest or weed control at 140 g/ha: 140 g ai/ha
In short: (§1)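 Greenhouse-grown plants at the first or second true leaf stage (7-21 d, ~15 h photoperiod, 23-29° C day) were sprayed overhead at 187 L/ha with compound in acetone/DMSO-based spray solution containing crop oil concentrate and surfactant. Injury was scored visually after 14 d, 0-100% versus untreated plants.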

[2] = tested on: EPHHL: wild poinsettia (Euphorbia heterophylla); assay: Post-emergent herbicidal test, wild poinsettia; details: post-emergence, 336 h, 14 days after application, read-out: Visual Growth Reduction (%) 14 Days After Application EPHHL; for pest or weed control at 17.5 g/ha: 17.5 g ai/ha; for pest or weed control at 35 g/ha: 35 g ai/ha; for pest or weed control at 70 g/ha: 70 g ai/ha; for pest or weed control at 140 g/ha: 140 g ai/ha
In short: as §1

[3] = tested on: CIRAR: Canada thistle (Cirsium arvense); assay: Post-emergent herbicidal test, Canada thistle; details: post-emergence, 336 h, 14 days after application, read-out: Visual Growth Reduction (%) 14 Days After Application CIRAR; for pest or weed control at 17.5 g/ha: 17.5 g ai/ha; for pest or weed control at 35 g/ha: 35 g ai/ha; for pest or weed control at 70 g/ha: 70 g ai/ha; for pest or weed control at 140 g/ha: 140 g ai/ha
In short: as §1

[4] = tested on: CYPES: yellow nutsedge (Cyperus esculentus); assay: Post-emergent herbicidal test, yellow nutsedge; details: post-emergence, 336 h, 14 days after application, read-out: Visual Growth Reduction (%) 14 Days After Application CYPES; for pest or weed control at 17.5 g/ha: 17.5 g ai/ha; for pest or weed control at 35 g/ha: 35 g ai/ha; for pest or weed control at 70 g/ha: 70 g ai/ha; for pest or weed control at 140 g/ha: 140 g ai/ha
In short: as §1

[5] = tested on: SETFA: giant foxtail (Setaria faberi); assay: Post-emergent herbicidal test, giant foxtail; details: post-emergence, 336 h, 14 days after application, read-out: Visual Growth Reduction (%) 14 Days After Application SETFA; for pest or weed control at 17.5 g/ha: 17.5 g ai/ha; for pest or weed control at 35 g/ha: 35 g ai/ha; for pest or weed control at 70 g/ha: 70 g ai/ha; for pest or weed control at 140 g/ha: 140 g ai/ha
In short: as §1

[6] = tested on: IPOHE: ivyleaf morningglory (Ipomoea hederacea); assay: Post-emergent herbicidal test, ivyleaf morningglory; details: post-emergence, 336 h, 14 days after application, read-out: Visual Growth Reduction (%) 14 Days After Application IPOHE; for pest or weed control at 17.5 g/ha: 17.5 g ai/ha; for pest or weed control at 35 g/ha: 35 g ai/ha; for pest or weed control at 70 g/ha: 70 g ai/ha; for pest or weed control at 140 g/ha: 140 g ai/ha
In short: as §1

[7] = tested on: DIGSA: large crabgrass (Digitaria sanguinalis); assay: Post-emergent herbicidal test, large crabgrass; details: post-emergence, 336 h, 14 days after application, read-out: Visual Growth Reduction (%) 14 Days After Application DIGSA; for pest or weed control at 17.5 g/ha: 17.5 g ai/ha; for pest or weed control at 35 g/ha: 35 g ai/ha; for pest or weed control at 70 g/ha: 70 g ai/ha; for pest or weed control at 140 g/ha: 140 g ai/ha
In short: as §1

[8] = tested on: BRSNN: oilseed rape, canola (Brassica napus); assay: Post-emergent herbicidal test, oilseed rape; details: post-emergence, 336 h, 14 days after application, read-out: Visual Growth Reduction (%) 14 Days After Application BRSNN; for pest or weed control at 17.5 g/ha: 17.5 g ai/ha; for pest or weed control at 35 g/ha: 35 g ai/ha; for pest or weed control at 70 g/ha: 70 g ai/ha; for pest or weed control at 140 g/ha: 140 g ai/ha
In short: as §1

[9] = tested on: SORVU: shattercane (Sorghum bicolor); assay: Post-emergent herbicidal test, shattercane; details: post-emergence, 336 h, 14 days after application, read-out: Visual Growth Reduction (%) 14 Days After Application SORVU; for pest or weed control at 17.5 g/ha: 17.5 g ai/ha; for pest or weed control at 35 g/ha: 35 g ai/ha; for pest or weed control at 70 g/ha: 70 g ai/ha; for pest or weed control at 140 g/ha: 140 g ai/ha
In short: as §1

[10] = tested on: VIOTR: wild violet (Viola tricolor); assay: Post-emergent herbicidal test, wild violet; details: post-emergence, 336 h, 14 days after application, read-out: Visual Growth Reduction (%) 14 Days After Application VIOTR; for pest or weed control at 17.5 g/ha: 17.5 g ai/ha; for pest or weed control at 35 g/ha: 35 g ai/ha; for pest or weed control at 70 g/ha: 70 g ai/ha; for pest or weed control at 140 g/ha: 140 g ai/ha
In short: as §1

[11] = tested on: ECHCG: barnyardgrass (Echinochloa crus-galli); assay: Post-emergent herbicidal test, barnyardgrass; details: post-emergence, 336 h, 14 days after application, read-out: Visual Growth Reduction (%) 14 Days After Application ECHCG; for pest or weed control at 17.5 g/ha: 17.5 g ai/ha; for pest or weed control at 35 g/ha: 35 g ai/ha; for pest or weed control at 70 g/ha: 70 g ai/ha; for pest or weed control at 140 g/ha: 140 g ai/ha
In short: as §1

Nc1c(F)c(-c2ccc(Cl)c3c2OCO3)nc(C(=O)OCc2ccccc2)c1Cl [Compound 1B]
95%: pest or weed control at 35 g/ha [1] | pest or weed control at 17.5 g/ha [8]
0%: pest or weed control at 17.5 g/ha [5] | pest or weed control at 35 g/ha [5] | pest or weed control at 17.5 g/ha [6] | pest or weed control at 35 g/ha [6] | pest or weed control at 70 g/ha [6] | pest or weed control at 17.5 g/ha [7] | pest or weed control at 35 g/ha [7] | pest or weed control at 17.5 g/ha [11] | pest or weed control at 35 g/ha [11] | pest or weed control at 70 g/ha [11] | pest or weed control at 140 g/ha [11]
75%: pest or weed control at 17.5 g/ha [3] | pest or weed control at 17.5 g/ha [4] | pest or weed control at 35 g/ha [10] | pest or weed control at 140 g/ha [10]
15%: pest or weed control at 70 g/ha [2]
40%: pest or weed control at 17.5 g/ha [10]
85%: pest or weed control at 70 g/ha [3] | pest or weed control at 35 g/ha [4] | pest or weed control at 70 g/ha [4] | pest or weed control at 140 g/ha [9]
80%: pest or weed control at 35 g/ha [3]
25%: pest or weed control at 17.5 g/ha [9]
100%: pest or weed control at 70 g/ha [1] | pest or weed control at 140 g/ha [1] | pest or weed control at 35 g/ha [8] | pest or weed control at 70 g/ha [8] | pest or weed control at 140 g/ha [8]
20%: pest or weed control at 70 g/ha [5] | pest or weed control at 70 g/ha [7]
90%: pest or weed control at 17.5 g/ha [1] | pest or weed control at 140 g/ha [3] | pest or weed control at 140 g/ha [4]
10%: pest or weed control at 17.5 g/ha [2] | pest or weed control at 35 g/ha [2] | pest or weed control at 140 g/ha [2] | pest or weed control at 140 g/ha [6]
50%: pest or weed control at 140 g/ha [5] | pest or weed control at 140 g/ha [7] | pest or weed control at 35 g/ha [9]
60%: pest or weed control at 70 g/ha [9] | pest or weed control at 70 g/ha [10]

COC(=O)c1nc(-c2ccc(I)c3c2OC(F)(F)O3)c(F)c(N)c1Cl [Compound 10]
0%: pest or weed control at 17.5 g/ha [2] | pest or weed control at 35 g/ha [2] | pest or weed control at 70 g/ha [2] | pest or weed control at 140 g/ha [2] | pest or weed control at 17.5 g/ha [4] | pest or weed control at 35 g/ha [4] | pest or weed control at 70 g/ha [4] | pest or weed control at 140 g/ha [4] | pest or weed control at 17.5 g/ha [5] | pest or weed control at 35 g/ha [5] | pest or weed control at 70 g/ha [5] | pest or weed control at 140 g/ha [5] | pest or weed control at 17.5 g/ha [6] | pest or weed control at 35 g/ha [6] | pest or weed control at 70 g/ha [6] | pest or weed control at 140 g/ha [6] | pest or weed control at 17.5 g/ha [7] | pest or weed control at 35 g/ha [7] | pest or weed control at 70 g/ha [7] | pest or weed control at 140 g/ha [7] | pest or weed control at 17.5 g/ha [9] | pest or weed control at 35 g/ha [9] | pest or weed control at 70 g/ha [9] | pest or weed control at 140 g/ha [9] | pest or weed control at 17.5 g/ha [10] | pest or weed control at 35 g/ha [10] | pest or weed control at 70 g/ha [10] | pest or weed control at 140 g/ha [10] | pest or weed control at 17.5 g/ha [11] | pest or weed control at 35 g/ha [11] | pest or weed control at 70 g/ha [11] | pest or weed control at 140 g/ha [11]
65%: pest or weed control at 17.5 g/ha [1] | pest or weed control at 70 g/ha [8]
50%: pest or weed control at 17.5 g/ha [8]
60%: pest or weed control at 17.5 g/ha [3] | pest or weed control at 35 g/ha [8]
75%: pest or weed control at 70 g/ha [1] | pest or weed control at 140 g/ha [1] | pest or weed control at 140 g/ha [3]
70%: pest or weed control at 35 g/ha [1] | pest or weed control at 35 g/ha [3] | pest or weed control at 70 g/ha [3] | pest or weed control at 140 g/ha [8]
